From the NIST ThermoML archive (doi:10.1016/j.jct.2019.03.023)
Where “and” joins values, the source holds several entries; their conditions need not be identical. Equal values may be shown once.

Assay: molar heat capacity at constant volume
Conditions: Vacuum adiabatic calorimetry

CC(C)O [propan-2-ol]
Fluid (supercritical or subcritical phases)
Conditions | molar heat capacity at constant volume
380.8 K, Mass density=697.69 kg/m3 | 187.08 J/K/mol
380.91 K, Mass density=697.69 kg/m3 | 187.8 J/K/mol
381.02 K, Mass density=697.69 kg/m3 | 186.29 J/K/mol
381.13 K, Mass density=697.69 kg/m3 | 184.61 J/K/mol
381.24 K, Mass density=697.69 kg/m3 | 185.39 J/K/mol
381.35 K, Mass density=697.69 kg/m3 | 184.49 J/K/mol
381.46 K, Mass density=697.69 kg/m3 | 184.01 J/K/mol
381.57 K, Mass density=697.69 kg/m3 | 184.67 J/K/mol
381.69 K, Mass density=697.69 kg/m3 | 184.97 J/K/mol
391.32 K, Mass density=329.2 kg/m3 | 243.38 J/K/mol
391.53 K, Mass density=329.2 kg/m3 | 248.85 J/K/mol
391.54 K, Mass density=329.2 kg/m3 | 243.44 J/K/mol
391.65 K, Mass density=329.2 kg/m3 | 246.93 J/K/mol
391.76 K, Mass density=329.2 kg/m3 | 235.69 J/K/mol
391.87 K, Mass density=329.2 kg/m3 | 241.16 J/K/mol
391.98 K, Mass density=329.2 kg/m3 | 242.54 J/K/mol
392.09 K, Mass density=329.2 kg/m3 | 244.11 J/K/mol
392.2 K, Mass density=329.2 kg/m3 | 243.2 J/K/mol
399.51 K, Mass density=343.1 kg/m3 | 235.93 J/K/mol
399.72 K, Mass density=343.1 kg/m3 | 235.93 J/K/mol
399.83 K, Mass density=343.1 kg/m3 | 239.24 J/K/mol
399.94 K, Mass density=343.1 kg/m3 | 242.54 J/K/mol
400.04 K, Mass density=343.1 kg/m3 | 236.05 J/K/mol
400.15 K, Mass density=343.1 kg/m3 | 239.36 J/K/mol
400.25 K, Mass density=343.1 kg/m3 | 239.42 J/K/mol
400.36 K, Mass density=343.1 kg/m3 | 239.42 J/K/mol
400.46 K, Mass density=343.1 kg/m3 | 236.23 J/K/mol
400.57 K, Mass density=343.1 kg/m3 | 239.54 J/K/mol
416.55 K, Mass density=329.2 kg/m3 | 258.83 J/K/mol
416.65 K, Mass density=329.2 kg/m3 | 260.09 J/K/mol
416.76 K, Mass density=329.2 kg/m3 | 252.52 J/K/mol
416.86 K, Mass density=329.2 kg/m3 | 257.99 J/K/mol
416.97 K, Mass density=329.2 kg/m3 | 255.76 J/K/mol
417.08 K, Mass density=329.2 kg/m3 | 261.47 J/K/mol
417.18 K, Mass density=329.2 kg/m3 | 252.94 J/K/mol
417.29 K, Mass density=329.2 kg/m3 | 253.84 J/K/mol
417.39 K, Mass density=329.2 kg/m3 | 259.73 J/K/mol
417.5 K, Mass density=329.2 kg/m3 | 261.17 J/K/mol
442.12 K, Mass density=329.2 kg/m3 | 262.92 J/K/mol
442.23 K, Mass density=329.2 kg/m3 | 265.86 J/K/mol
442.33 K, Mass density=329.2 kg/m3 | 272.53 J/K/mol
442.43 K, Mass density=329.2 kg/m3 | 265.68 J/K/mol
442.54 K, Mass density=329.2 kg/m3 | 266.76 J/K/mol
442.64 K, Mass density=329.2 kg/m3 | 267.6 J/K/mol
442.74 K, Mass density=329.2 kg/m3 | 270.13 J/K/mol
442.85 K, Mass density=329.2 kg/m3 | 265.86 J/K/mol
447.55 K, Mass density=581.06 kg/m3 | 250.9 J/K/mol
447.75 K, Mass density=581.06 kg/m3 | 250.96 J/K/mol
447.85 K, Mass density=581.06 kg/m3 | 250.96 J/K/mol
447.95 K, Mass density=581.06 kg/m3 | 253.06 J/K/mol
448.05 K, Mass density=581.06 kg/m3 | 255.1 J/K/mol
448.15 K, Mass density=581.06 kg/m3 | 251.08 J/K/mol
448.25 K, Mass density=581.06 kg/m3 | 251.08 J/K/mol
448.35 K, Mass density=581.06 kg/m3 | 253.18 J/K/mol
448.54 K, Mass density=581.06 kg/m3 | 253.06 J/K/mol
448.64 K, Mass density=581.06 kg/m3 | 255.16 J/K/mol
448.74 K, Mass density=581.06 kg/m3 | 253.12 J/K/mol
448.84 K, Mass density=581.06 kg/m3 | 251.14 J/K/mol
448.94 K, Mass density=581.06 kg/m3 | 253.18 J/K/mol
449.04 K, Mass density=581.06 kg/m3 | 253.24 J/K/mol
449.14 K, Mass density=581.06 kg/m3 | 255.28 J/K/mol
449.24 K, Mass density=581.06 kg/m3 | 253.3 J/K/mol
449.34 K, Mass density=581.06 kg/m3 | 253.3 J/K/mol
449.44 K, Mass density=581.06 kg/m3 | 253.3 J/K/mol
449.63 K, Mass density=581.06 kg/m3 | 251.56 J/K/mol
449.73 K, Mass density=581.06 kg/m3 | 253.6 J/K/mol
449.83 K, Mass density=581.06 kg/m3 | 255.7 J/K/mol
449.93 K, Mass density=581.06 kg/m3 | 255.7 J/K/mol
450.03 K, Mass density=581.06 kg/m3 | 251.62 J/K/mol
450.13 K, Mass density=581.06 kg/m3 | 249.63 J/K/mol
450.23 K, Mass density=581.06 kg/m3 | 255.82 J/K/mol
450.33 K, Mass density=581.06 kg/m3 | 253.78 J/K/mol
450.43 K, Mass density=581.06 kg/m3 | 253.78 J/K/mol
450.52 K, Mass density=581.06 kg/m3 | 253.84 J/K/mol
450.62 K, Mass density=581.06 kg/m3 | 253.54 J/K/mol
450.72 K, Mass density=581.06 kg/m3 | 251.86 J/K/mol
450.92 K, Mass density=581.06 kg/m3 | 253.72 J/K/mol
451.06 K, Mass density=581.06 kg/m3 | 251.62 J/K/mol
451.16 K, Mass density=581.06 kg/m3 | 252.94 J/K/mol
451.26 K, Mass density=581.06 kg/m3 | 249.63 J/K/mol
451.36 K, Mass density=581.06 kg/m3 | 249.63 J/K/mol
451.46 K, Mass density=581.06 kg/m3 | 249.69 J/K/mol
451.56 K, Mass density=581.06 kg/m3 | 249.69 J/K/mol
451.66 K, Mass density=581.06 kg/m3 | 251.8 J/K/mol
451.75 K, Mass density=581.06 kg/m3 | 250.3 J/K/mol
451.81 K, Mass density=581.06 kg/m3 | 247.95 J/K/mol
451.83 K, Mass density=581.06 kg/m3 | 250 J/K/mol and 186.78 J/K/mol
451.86 K, Mass density=581.06 kg/m3 | 181.85 J/K/mol
451.91 K, Mass density=581.06 kg/m3 | 175.18 J/K/mol
451.95 K, Mass density=581.06 kg/m3 | 179.26 J/K/mol
452.01 K, Mass density=581.06 kg/m3 | 174.52 J/K/mol

Conditions | molar heat capacity at constant volume [J/K/mol]
451.83 K, Liquid | 186.78
